From US20190284129A1, “LIPID COMPOUNDS AND COMPOSITIONS AND THEIR OPTHALMIC USE” (BIOZEP AS, priority 2015, published 2019)

Molecular target: T1, human PPARalpha receptor (Homo sapiens, UniProt Q07869)
T1 construct: expressed in transfected cells; host or cells: HEK293 (DSMZ ACC 305)
T1 sequence (Q07869 239-466 limits assumed): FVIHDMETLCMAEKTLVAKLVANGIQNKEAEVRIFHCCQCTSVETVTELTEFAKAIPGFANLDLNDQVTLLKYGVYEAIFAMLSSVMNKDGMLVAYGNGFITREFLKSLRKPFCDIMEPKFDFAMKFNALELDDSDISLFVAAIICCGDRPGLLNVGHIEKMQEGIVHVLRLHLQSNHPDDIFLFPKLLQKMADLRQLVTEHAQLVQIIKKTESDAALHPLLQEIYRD
Experiment: cellular GAL4 reporter gene assay (M1H) in HEK293 cells, PPARalpha
Format: cell-based
Details: agonist mode
Protocol: The compounds BIZ-102 (Example 2), BIZ-103 (Example 5) and BIZ-106 were tested at the human PPARalpha receptor in a cellular GAL4 Reporter gene assay. The assay was run in agonist and antagonist mode to detect agonistic as well as antagonistic activities of the tested compounds.
Performance of the GAL4 cellular reporter assay:
Day 1: Cells were seeded in 96 well plates in plating medium (MEM with serum), incubation overnight at 37° C., 5% CO2.
Day 2: Removal of plating medium
Addition of PEI-based transfection agent
Incubation for 4-6 hours at 37° C., 5% CO2
Addition of assay medium (MEM with serum)
Addition of compounds (dilution series was generated in MEM with serum)
Incubation overnight at 37° C., 5% CO2
Day 3: Removal of assay medium (16-20 hours after compound addition)
Addition of Passive Lysis Buffer (Promega)
15 mins incubation at room temperature
Addition of luciferase buffers and measurement in a dual-flash procedure
The assays were done in HEK293 cells (DSMZ ACC 305). The plasmids used in the GAL4 assay system were derivatives of Stratagene's M2H plasmids: the reporter plasmid pFR-Luc (containing a synthetic promoter with five tandem repeats of the yeast GAL4 binding sites that control expression of the Photinus pyralis (American firefly) luciferase gene), and pCMV-BD (for fusions of nuclear receptor ligand binding domains to the DNA-binding domain of the yeast protein GAL4). In order to improve experimental accuracy, a second reporter—Renilla reniformis luciferase, driven by a constitutive promoter—was included as an internal control. Using the control reporter (Renilla Luciferase) allowed corrections for variations in experimental handling, e.g. transfection efficacy, cell viability, pipetting errors, cell lysis efficiency and assay efficiency.
Primary read out of the assays was loaded into PhAST (Phenex Assay and Screening Tool) and checked for assay quality (generation of SB and Zprime values). […] Within PhAST there are two measured and one calculated data layers:
LAYER1 (measured)—contains the activity values of the firefly luciferase activities and is a direct measure for modulation of the cofactor binding properties of the Nuclear Receptors by the tested compounds.
LAYER2 (measured)—contains the activity values of the renilla luciferase activities and is used as normalisation layer. As the renilla luciferase is expressed under control of the constitutively active CMV promoter, moderate well-to-well differences can be used to correct for variations in experimental handling.
LAYER3 (calculated)—is calculated according to the following equation: […]
1000*Firefly luciferase value/Renilla luciferase value
These normalised values are, as well as LAYER1, a measure for the modulation of the cofactor binding properties of the nuclear receptors by the tested compounds.

Efficacy vs. Fenofibric Acid (HEK293): 45% | Efficacy vs. GW7647 (HEK293): 150% | EC50 (HEK293, GAL4 reporter): 350 nM
Compound: CCCCC/C=C\C/C=C\C/C=C\C/C=C\CCC(CC)C(=O)O (stereo not drawn) [BIZ-102, (All-Z) 2-ethyl-5,8,11,14-eicosatetraenoic Acid]
